Assay results from ChEMBL document CHEMBL1138857, “Quinol-4-ones as steroid A-ring mimetics in nonsteroidal dissociated glucocorticoid agonists” (J Med Chem, 2006).

Key:
HFF [1] = assay: Inhibition of IL1-stimulated IL6 production in HFF cells; format: functional, cell-based; settings: Homo sapiens
HFF [2] = assay: Inhibition of IL1-stimulated IL6 production in HFF cells relative to Dexamethasone; format: functional, Homo sapiens
Progesterone receptor = biological target: T1, Progesterone receptor (Homo sapiens, UniProt P06401); assay: Inhibition of tetramethylrhodamine labeled RU486 binding to PR by FP assay
T1 sequence (P06401 whole entry): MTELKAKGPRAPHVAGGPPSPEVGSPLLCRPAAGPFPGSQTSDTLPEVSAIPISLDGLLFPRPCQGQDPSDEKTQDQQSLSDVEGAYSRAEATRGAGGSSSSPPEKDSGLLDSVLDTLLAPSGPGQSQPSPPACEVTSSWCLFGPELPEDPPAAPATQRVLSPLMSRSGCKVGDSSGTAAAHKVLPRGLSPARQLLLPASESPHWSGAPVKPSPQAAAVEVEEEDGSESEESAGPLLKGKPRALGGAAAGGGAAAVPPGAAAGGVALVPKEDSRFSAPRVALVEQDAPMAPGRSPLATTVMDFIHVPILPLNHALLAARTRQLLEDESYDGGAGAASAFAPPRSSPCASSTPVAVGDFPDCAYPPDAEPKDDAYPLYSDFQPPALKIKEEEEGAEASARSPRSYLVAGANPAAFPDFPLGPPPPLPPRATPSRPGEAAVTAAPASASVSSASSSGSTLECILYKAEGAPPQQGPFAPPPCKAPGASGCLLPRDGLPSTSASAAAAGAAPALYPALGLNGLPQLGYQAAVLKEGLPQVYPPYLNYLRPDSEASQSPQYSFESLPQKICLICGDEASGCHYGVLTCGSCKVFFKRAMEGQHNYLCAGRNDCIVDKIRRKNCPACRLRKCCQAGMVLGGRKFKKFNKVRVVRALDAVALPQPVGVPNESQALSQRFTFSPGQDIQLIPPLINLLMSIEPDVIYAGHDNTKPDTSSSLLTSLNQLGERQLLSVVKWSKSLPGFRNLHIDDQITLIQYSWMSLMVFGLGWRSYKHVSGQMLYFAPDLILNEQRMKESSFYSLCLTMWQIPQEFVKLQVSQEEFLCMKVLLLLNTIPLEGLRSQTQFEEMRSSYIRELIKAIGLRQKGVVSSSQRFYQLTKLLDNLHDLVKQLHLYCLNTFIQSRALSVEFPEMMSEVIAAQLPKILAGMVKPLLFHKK

Glucocorticoid receptor = biological target: T2, Glucocorticoid receptor (Homo sapiens, UniProt P04150)
T2 sequence (P04150 whole entry): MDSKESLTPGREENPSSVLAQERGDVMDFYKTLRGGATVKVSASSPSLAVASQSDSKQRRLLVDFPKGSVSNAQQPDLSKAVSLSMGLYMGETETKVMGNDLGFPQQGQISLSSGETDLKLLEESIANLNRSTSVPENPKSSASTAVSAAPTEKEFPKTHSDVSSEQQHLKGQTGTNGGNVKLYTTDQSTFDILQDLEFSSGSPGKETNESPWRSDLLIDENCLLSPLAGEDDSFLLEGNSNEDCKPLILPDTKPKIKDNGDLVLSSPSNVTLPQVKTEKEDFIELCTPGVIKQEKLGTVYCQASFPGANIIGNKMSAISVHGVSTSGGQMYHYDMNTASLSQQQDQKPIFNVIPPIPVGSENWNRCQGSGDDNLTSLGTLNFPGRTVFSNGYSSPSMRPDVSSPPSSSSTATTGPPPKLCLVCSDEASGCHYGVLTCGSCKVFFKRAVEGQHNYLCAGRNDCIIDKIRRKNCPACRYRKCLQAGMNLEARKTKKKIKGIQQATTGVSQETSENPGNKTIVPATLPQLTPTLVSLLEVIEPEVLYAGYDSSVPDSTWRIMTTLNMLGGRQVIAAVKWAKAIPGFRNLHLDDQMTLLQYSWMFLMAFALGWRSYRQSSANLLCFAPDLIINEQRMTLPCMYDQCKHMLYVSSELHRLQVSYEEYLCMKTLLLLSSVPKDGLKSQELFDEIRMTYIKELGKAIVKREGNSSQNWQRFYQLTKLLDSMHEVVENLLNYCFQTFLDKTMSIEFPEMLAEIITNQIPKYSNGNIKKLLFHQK

HFF [3] = assay: Induction of aromatase activity in HFF cells assessed as production of beta estradiol by aromatase assay relative to Dexamethasone; format: functional, Homo sapiens
HFF [4] = assay: Induction of aromatase activity in HFF cells assessed as production of beta estradiol by aromatase assay; format: functional, cell-based; settings: Homo sapiens
[5] = biological target: T3, Mineralocorticoid receptor (Homo sapiens, UniProt P08235); assay: Inhibition of tetramethylrhodamine labeled dexamethasone binding to MR by FP assay
T3 sequence (P08235 whole entry): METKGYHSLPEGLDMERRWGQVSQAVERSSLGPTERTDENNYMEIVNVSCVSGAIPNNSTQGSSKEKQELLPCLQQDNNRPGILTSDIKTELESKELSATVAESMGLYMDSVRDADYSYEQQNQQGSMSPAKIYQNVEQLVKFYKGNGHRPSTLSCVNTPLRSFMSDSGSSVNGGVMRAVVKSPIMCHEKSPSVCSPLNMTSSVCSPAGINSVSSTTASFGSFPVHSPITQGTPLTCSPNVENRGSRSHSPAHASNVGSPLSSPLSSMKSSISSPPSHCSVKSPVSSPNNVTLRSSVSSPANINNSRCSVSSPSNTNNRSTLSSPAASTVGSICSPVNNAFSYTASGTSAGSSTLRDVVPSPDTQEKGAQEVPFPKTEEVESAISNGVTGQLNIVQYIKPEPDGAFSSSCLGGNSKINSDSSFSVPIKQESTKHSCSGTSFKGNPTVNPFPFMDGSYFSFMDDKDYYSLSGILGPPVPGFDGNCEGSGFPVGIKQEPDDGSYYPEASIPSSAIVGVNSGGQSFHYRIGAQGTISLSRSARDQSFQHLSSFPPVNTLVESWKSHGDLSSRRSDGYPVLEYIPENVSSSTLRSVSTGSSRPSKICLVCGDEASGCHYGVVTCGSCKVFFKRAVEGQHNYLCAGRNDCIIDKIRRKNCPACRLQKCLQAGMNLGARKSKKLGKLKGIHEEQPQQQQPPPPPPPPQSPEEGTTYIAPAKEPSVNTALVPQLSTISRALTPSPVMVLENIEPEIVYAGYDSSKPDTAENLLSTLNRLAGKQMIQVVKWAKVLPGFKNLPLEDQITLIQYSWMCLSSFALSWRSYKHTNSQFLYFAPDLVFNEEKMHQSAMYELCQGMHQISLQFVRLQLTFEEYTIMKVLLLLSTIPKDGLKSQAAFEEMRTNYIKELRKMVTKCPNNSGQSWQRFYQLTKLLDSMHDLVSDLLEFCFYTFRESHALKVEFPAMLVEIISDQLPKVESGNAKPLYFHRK

Homo sapiens = organism: Homo sapiens; assay: Ratio of IC50 for GR to PR
HeLa [6] = assay: Activation of MMTV in HeLa cells measured by luciferase activity; format: functional, cell-based; settings: Homo sapiens
HeLa [7] = assay: Activation of MMTV in HeLa cells measured by luciferase activity relative to Dexamethasone; format: functional, Homo sapiens
Mus musculus [8] = assay: Inhibition of LPS-stimulated TNFalpha production in BALB/c mouse at 10 mg/kg, po; format: functional
Mus musculus [9] = assay: Inhibition of LPS-stimulated TNFalpha production in BALB/c mouse at 3 mg/kg, po; settings: read-out: Inhibition

SMILES	EC50 (HeLa [6]) [nM]	IC50 (HFF [1]) [nM]	Efficacy (HFF [2]) [%]	IC50 (Progesterone receptor) [nM]	IC50 (Glucocorticoid receptor) [nM]	Efficacy (HFF [3]) [%]	EC50 (HFF [4]) [nM]	IC50 [5] [nM]	Ratio IC50 (Homo sapiens)	Efficacy (HeLa [7]) [%]	inhibition in vivo at 10 mg/kg (Mus musculus [8]) [%]	inhibition in vivo at 3 mg/kg (Mus musculus [9]) [%]
COc1ccc(F)cc1C(C)(C)CC(O)(CN1C[C@@H](C)C(=O)[C@@H](C)C1)C(F)(F)F (some centres not stated)	–	75	89	> 2000	10	93	240	430	> 75	–	–	–
COc1ccc(F)cc1C(C)(C)CC(O)(CN1CCC(=O)c2ccccc21)C(F)(F)F (configuration not stated)	–	110	72	90	4	–	–	130	< 50	–	–	–
COc1ccc(F)cc1C(C)(C)CC(O)(CN1C[C@@H](C)O[C@@H](C)C1)C(F)(F)F (some centres not stated)	–	270	72	> 2000	38	–	–	450	> 75	–	–	–
COc1ccc(F)cc1C(C)(C)CC(O)(CN1CCOc2ccccc21)C(F)(F)F (configuration not stated)	–	600	25	640	15	–	–	310	< 50	–	–	–

Further lines, with some results ahead:

EC50 (HeLa [6]) [nM]	SMILES	IC50 (HFF [1]) [nM]	Efficacy (HFF [2]) [%]	IC50 (Progesterone receptor) [nM]	IC50 (Glucocorticoid receptor) [nM]	Efficacy (HFF [3]) [%]	EC50 (HFF [4]) [nM]	IC50 [5] [nM]	Ratio IC50 (Homo sapiens)	Efficacy (HeLa [7]) [%]	inhibition in vivo at 10 mg/kg (Mus musculus [8]) [%]	inhibition in vivo at 3 mg/kg (Mus musculus [9]) [%]
> 2000	COc1ccc(F)cc1C(C)(C)CC(O)(Cn1ccc(=O)c2ccccc21)C(F)(F)F (configuration not stated)	27	82	475	10	67	220	120	< 50	10	–	–
> 2000	Cc1ccccc1C(C)(C)CC(O)(Cn1ccc(=O)c2ccccc21)C(F)(F)F (configuration not stated)	61	63	240	22	29	> 2000	150	–	1	36	–
> 2000	Cc1ccc(F)cc1C(C)(C)CC(O)(Cn1ccc(=O)c2ccccc21)C(F)(F)F (configuration not stated)	34	66	240	10	22	–	120	–	2	50	–
16	C[C@]12C=CC(=O)C=C1CC[C@@H]1[C@@H]2[C@@H](O)C[C@@]2(C)[C@H]1CC[C@]2(O)C(=O)CO [PREDNISOLONE]	6.6	96	–	–	92	19	–	–	91	–	84
37	CC(C)(CC(O)(Cn1ccc(=O)c2ccccc21)C(F)(F)F)c1cc(F)ccc1O (configuration not stated)	6	92	960	5	74	14	580	–	20	55	–
